Molecular target: coffee bean alpha-galactosidase (Coffea arabica) (UniProt Q42656)
Assay: Inhibitory activity measured against alpha-galactosidase of coffee bean by colorimetric assay using the p-nitrophenyl glycoside method

Chain of coffee bean alpha-galactosidase (Coffea arabica) (Q42656 whole entry, looked up): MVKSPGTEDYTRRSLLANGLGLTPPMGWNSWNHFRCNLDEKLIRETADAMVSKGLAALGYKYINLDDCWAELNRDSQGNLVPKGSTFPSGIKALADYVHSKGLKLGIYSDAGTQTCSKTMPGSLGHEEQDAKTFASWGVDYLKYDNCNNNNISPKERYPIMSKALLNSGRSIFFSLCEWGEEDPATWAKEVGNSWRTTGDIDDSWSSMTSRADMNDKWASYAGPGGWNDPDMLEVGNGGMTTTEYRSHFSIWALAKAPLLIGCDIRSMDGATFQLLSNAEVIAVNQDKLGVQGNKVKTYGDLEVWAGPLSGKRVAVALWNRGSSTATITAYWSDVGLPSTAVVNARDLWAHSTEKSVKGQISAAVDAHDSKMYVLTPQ

## OC[C@H]1N[C@H](CO)[C@H](O)C(O)[C@H]1O (some centres not stated)
  IC50: 80 µM

## OCC1NC(CO)[C@@H](O)C(O)C1O (stereo partly drawn) [(R)-2,6-Bis-hydroxymethyl-piperidine-3,4,5-triol]
  IC50: 6.4 µM

Source: BindingDB's records for doi:10.1021/jm970836l (Hokuriku University, 1998)
